Patent US7914827B2, “Use of extracts or extractants of the guajacum types, said extracts or extractants bringing about phosphodiesterase-4 inhibition and method for producing the same” (Max Zeller Soehne AG, priority 2006, dated 2011)

Target: human phosphodiesterase-5 (PDE5) (Homo sapiens, UniProt O76074)
Assay: PDE5 assay (3H-cGMP as tracer)
Format: biochemical
Conditions: read-out: Inhibitory activity [%], PDE5

CCCc1nn(C)c2c(=O)[nH]c(-c3cc(S(=O)(=O)N4CCN(C)CC4)ccc3OCC)nc12 [Sildenafil]
inhibition at 1 pM: 5%
inhibition at 0.0001 µM: 21%
inhibition at 0.01 µM: 52%
inhibition at 1 µM: 74%
